Species: Rattus norvegicus
Experiment: DrugMatrix - Regimen: Daily Repeat
Type: toxicity, organism-based, Sprague-Dawley
Design: regimen Daily Repeat, gender Male, age 6-8 weeks
Settings: in vivo, po, route oral GAVAGE, […]; for ABSOLUTE BASOPHIL / BASOPHIL / NUCLEATED RED BLOOD CELLS / ABSOLUTE EOSINOPHIL / ABSOLUTE LYMPHOCYTE / ABSOLUTE MONOCYTE / ABSOLUTE SEGMENTED NEUTROPHIL / EOSINOPHIL / ERYTHROCYTE COUNT / HEMATOCRIT / HEMOGLOBIN / LEUKOCYTE COUNT / LYMPHOCYTE / MEAN CORPUSCULAR HEMOGLOBIN / MEAN CORPUSCULAR VOLUME / MONOCYTE / NEUTROPHIL / PLATELET COUNT: tissue Blood; for ALANINE AMINOTRANSFERASE / ALBUMIN / ALKALINE PHOSPHATASE / ASPARTATE AMINOTRANSFERASE / BLOOD UREA NITROGEN / CARBON DIOXIDE / CHLORIDE / CHOLESTEROL / CREATINE PHOSPHOKINASE / CREATININE / GLUCOSE / LACTATE DEHYDROGENASE / LIPASE / PHOSPHORUS / SODIUM / TOTAL BILIRUBIN / TOTAL PROTEIN / URIC ACID: tissue Plasma
[1] = 0 mg/kg, 72 h, dose level Control, time 3 day
[2] = 0 mg/kg, 120 h, dose level Control, time 5 day
[3] = 25 mg/kg, 72 h, dose level Low, time 3 day
[4] = 25 mg/kg, 120 h, dose level Low, time 5 day

CC(=O)N1CCN(c2ccc(OCC3COC(Cn4ccnc4)(c4ccc(Cl)cc4Cl)O3)cc2)CC1 (configuration not stated) [KETOCONAZOLE]
ABSOLUTE BASOPHIL [1]: 0 CELLS/uL
BASOPHIL [1]: 0%
NUCLEATED RED BLOOD CELLS [1]: 0 /100WBC
ABSOLUTE BASOPHIL [2]: 0 CELLS/uL
BASOPHIL [2]: 0%
ABSOLUTE BASOPHIL [3]: 0 CELLS/uL
ABSOLUTE EOSINOPHIL [3]: 0 CELLS/uL
ABSOLUTE LYMPHOCYTE [3]: 6183 CELLS/uL
ABSOLUTE MONOCYTE [3]: 155.33 CELLS/uL
ABSOLUTE SEGMENTED NEUTROPHIL [3]: 695 CELLS/uL
BASOPHIL [3]: 0%
EOSINOPHIL [3]: 0%
ERYTHROCYTE COUNT [3]: 5.13 x10E6/uL
HEMATOCRIT [3]: 33.13%
HEMOGLOBIN [3]: 12.97 G/DL
LEUKOCYTE COUNT [3]: 7.03 x10E3/uL
LYMPHOCYTE [3]: 87.67%
MEAN CORPUSCULAR HEMOGLOBIN [3]: 25.3 pg
MEAN CORPUSCULAR VOLUME [3]: 64.73 fL
MONOCYTE [3]: 2%
NEUTROPHIL [3]: 10.33%
NUCLEATED RED BLOOD CELLS [3]: 0 /100WBC
PLATELET COUNT [3]: 1118 x10E3/uL
ALANINE AMINOTRANSFERASE [3]: 90.33 u/L
ALBUMIN [3]: 3.83 G/DL
ALKALINE PHOSPHATASE [3]: 423.67 u/L
ASPARTATE AMINOTRANSFERASE [3]: 89.33 u/L
BLOOD UREA NITROGEN [3]: 12.67 mg/dL
CARBON DIOXIDE [3]: 39 mmol/L
CHLORIDE [3]: 95.33 MEQ/L
CHOLESTEROL [3]: 74 mg/dL
CREATINE PHOSPHOKINASE [3]: 308.67 u/L
CREATININE [3]: 0.15 mg/dL
GLUCOSE [3]: 163.33 mg/dL
LACTATE DEHYDROGENASE [3]: 69.33 u/L
LIPASE [3]: 10 u/L
PHOSPHORUS [3]: 9.63 mg/dL
SODIUM [3]: 136.67 MEQ/L
TOTAL BILIRUBIN [3]: 0.13 mg/dL
TOTAL PROTEIN [3]: 5.53 G/DL
URIC ACID [3]: 0.43 mg/dL
ABSOLUTE BASOPHIL [4]: 0 CELLS/uL
ABSOLUTE EOSINOPHIL [4]: 0 CELLS/uL
ABSOLUTE LYMPHOCYTE [4]: 8189 CELLS/uL
ABSOLUTE MONOCYTE [4]: 181 CELLS/uL
ABSOLUTE SEGMENTED NEUTROPHIL [4]: 1063.33 CELLS/uL
BASOPHIL [4]: 0%
EOSINOPHIL [4]: 0%
ERYTHROCYTE COUNT [4]: 5.6 x10E6/uL
HEMATOCRIT [4]: 34.17%
HEMOGLOBIN [4]: 13.47 G/DL
LEUKOCYTE COUNT [4]: 9.43 x10E3/uL
LYMPHOCYTE [4]: 86.67%
MEAN CORPUSCULAR HEMOGLOBIN [4]: 24.07 pg
MEAN CORPUSCULAR VOLUME [4]: 61.1 fL
MONOCYTE [4]: 2%
NEUTROPHIL [4]: 11.33%
NUCLEATED RED BLOOD CELLS [4]: 0 /100WBC
PLATELET COUNT [4]: 903 x10E3/uL
ALANINE AMINOTRANSFERASE [4]: 74 u/L
ALBUMIN [4]: 4.17 G/DL
ALKALINE PHOSPHATASE [4]: 365.33 u/L
ASPARTATE AMINOTRANSFERASE [4]: 92.33 u/L
BLOOD UREA NITROGEN [4]: 11.33 mg/dL
CARBON DIOXIDE [4]: 29.33 mmol/L
CHLORIDE [4]: 103.67 MEQ/L
CHOLESTEROL [4]: 75 mg/dL
CREATINE PHOSPHOKINASE [4]: 400.67 u/L
CREATININE [4]: 0.26 mg/dL
GLUCOSE [4]: 155 mg/dL
LACTATE DEHYDROGENASE [4]: 99.67 u/L
LIPASE [4]: 11.67 u/L
PHOSPHORUS [4]: 11.1 mg/dL
SODIUM [4]: 144.93 MEQ/L
TOTAL BILIRUBIN [4]: 0.2 mg/dL
TOTAL PROTEIN [4]: 5.93 G/DL
URIC ACID [4]: 0.8 mg/dL

Source: ChEMBL document CHEMBL3885881, “DrugMatrix”
